According to patent US20150336999A1, “PROCESS FOR THE PRODUCTION OF SOPHOROSE STARTING FROM SOPHOROLIPIDS” (IFP ENERGIES NOUVELLES, priority 2012, published 2015):
Values joined by “and” are separate entries in the source; they are usually repeats but may differ in a detail not shown here. Identical values can stand only once.

Key:
T. reesei CL847 = test: Fed-batch cellulase production by T. reesei CL847 with sugar mixture containing inducing sugar; specific rate of protein production; format: cell-based, Trichoderma reesei; details: for specific protein production rate: fed-batch 166 h, 30° C.
Description: After growing cells of T. reesei CL847 (Durand H. et al. (1988a) Classical and molecular genetics applied to Trichoderma reesei for the selection of improved cellulolytic industrial strains. In: FEMS Symposium n° 43: Biochemistry and Genetics of Cellulose Degradation, p. 135-151. Academic Press, London) on glucose in stirred flasks up to the exhaustion of the glucose, cellulase production was carried out using a “fed-batch” process employing a solution the composition of which was as follows: 50 g/L of a mixture of sugars and 15 mL/L of 20% by weight NH3 as described in the publication “A new stoichiometric miniaturization strategy for screening of industrial microbial strains: application to cellulase hyper-producing Trichoderma reesei strains”, Microbial Cell Factories 2012, 11:70.
The mixture of sugars used contained (100−x)% by weight of glucose and x% by weight of inducing sugar:
in the first case (control), the inducing sugar was lactose at a quantity of x=8%
in the second, third and fourth cases, the inducing sugar was sophorose from the hydrolysate obtained in Example 3 which had been supplemented with pure glucose in order to have x=8%, x=0.3% and x=0.03% respectively.
The fed-batch process was carried out for 166 hours with a solution supply flow rate of 0.3 mL/h and at a temperature of 30° C.
Daily samples were taken in order to monitor the concentration of cells and the concentration of proteins. The induction capacity of the mixture of sugars used for the fed-batch process was expressed as the specific rate of protein production (mg of proteins produced per gram of producer cells per hour).

[1] = test system: cellulolytic Trichoderma reesei system; details: known from the prior art (Mandels et al. 1962); cited from earlier work
[2] = inducing sugar x=8% by weight of sugar mixture (rest glucose)

Row | Compound | specific protein production rate (T. reesei CL847; [2]) | inducer of the cellulolytic Trichoderma reesei system [1] | induction relative to the mixture containing lactose at the same concentration (T. reesei CL847; 8% sophorose versus 8% lactose) | specific protein production rate (T. reesei CL847; inducing sugar x=0.03% by weight of sugar mixture (rest glucose)) | specific protein production rate (T. reesei CL847; inducing sugar x=0.3% by weight of sugar mixture (rest glucose))
1 | OC[C@H]1O[C@@H](O[C@H]2[C@H](O)[C@@H](O)C(O)O[C@@H]2CO)[C@H](O)[C@@H](O)[C@H]1O (stereo partly drawn) [lactose, reference compound] | 6.4 mg/g/h and ~6 mg/g/h | – | – | – | –
2 | O=C[C@H](O[C@@H]1O[C@H](CO)[C@@H](O)[C@H](O)[C@H]1O)[C@@H](O)[C@H](O)[C@H](O)CO [sophorose, 2-O-β-D-glucopyranosyl-D-glucose] | 12 mg/g/h | very good inducer | approximately twice as high | ~6 mg/g/h | 10.5 mg/g/h
